The source of these data is patent US11801246B2, “Methods of treating ischemic disease by administering an ATR kinase inhibitor” (East Tennessee State University Research Foundation, priority 2018, dated 2023).

Experiment [1] concerns dividing ATR+/+ and ATRflox/- HCT116 cells. As to the kind of experiment: morphologic analysis (phase-contrast microscopy) of form of cell death. Type of experiment: cell-based, human. An excerpt: (§1) FIG. 4 reports data supporting the finding that necrosis is the form of cell death induced by Ca^2+ overload in dividing cells. (A) ATR^+/+ and ATR^flox/− cells were pre-treated with apoptosis inhibitor Z-VAD-FMK and then with ionomycin for cytotoxicity assay. […] As a control, camptothecin (CPT), a DNA double-strand break and typical apoptosis inducer, caused characteristic cell shrinkage and apoptotic bodies. […] (E) A549 cells were transfected with control, ATR, or ATM siRNAs for 72 hrs, then treated with ionomycin for 4 hrs. Treated cells were either analyzed by Western blot or trypan blue staining for determination of cell death. (*, p≤0.01).
(§2) Cultured dividing ATR^+/+ and ATR^flox/− HCT116 cells were pre-treated with apoptosis inhibitor Z-VAD-FMK and then with ionomycin, followed by trypan blue cytotoxicity assay (FIG. 4A). […] As a control, CPT, a DNA double-strand break and typical apoptosis inducer, caused characteristic cell shrinkage and apoptotic bodies. […] FIG. 4E: Dividing A549 cells were transfected with control, ATR, or ATM siRNAs for 72 hrs, then treated with ionomycin for 4 hrs. Treated cells were either analyzed by Western blot or subjected to trypan blue staining for determination of cell death. (*, p≤0.01).

The subject of a further experiment is caspases. As to the kind of experiment: Western blot of activated (cleaved) caspases. Type of experiment: cell-based, human.
Excerpt: as §1, §2
For orientation: Immunoblotting shows a protein as a band on a membrane.

Experiment [2] deals with Terminally differentiated non-dividing SH-SY5Y cells. As to the kind of experiment: cytotoxicity assay, Ca2+ overload in non-dividing cells. The conditions noted are these: glutamate 100 uM, QA 1.0 mM, ionomycin 1.0 uM ± VE-822. Type of experiment: cell-based, human. As for the experimental part:
(§3) (A) Dividing human neural SH-SY5Y cells cultured in Dulbecco's modified Eagle's medium (DMEM) supplemented with 10% fetal bovine serum were treated with glutamate (100 uM), quinolinic acid (QA, 1.0 mM) or ionomycin (10 uM) in the presence and absence of ATR inhibitor VE-822 (ATRi, 80 nM) for 2 hours before cell death was measured using LDH cytotoxicity assay (LDH toxicity kit, Promega) following the vendor's procedures. (B)-(C) human ATR^+/+ and ATR^flox/− HCT116 cells and primary fibroblasts transfected with ATR siRNAs for 48 hrs were treated with ionomycin (10 uM) for the indicated periods before cell death was measured using standard trypan blue cytotoxicity assay. […] (E) Terminally differentiated non-dividing SH-SY5Y cells were treated with glutamate (100 uM), QA (1.0 mM) and ionomycin (1.0 uM)±VE-822 before cell death was measured using cytotoxicity assay. […] (G) Live cells (rounded morphology-white arrowheads) were counted in 5 fields per well. […]
(§4) Dividing human neural SH-SY5Y cells were treated with glutamate (100 uM), quinolinic acid (QA) (1.0 mM) or ionomycin (10 uM)±ATR inhibitor VE-822 (ATRi) for 2 hrs before cell death was measured using LDH cytotoxicity assay. Human ATR^+/+ and ATR^flox/− HCT116 cells and primary fibroblasts±ATR siRNAs were treated with ionomycin (10 uM) for the indicated periods before cell death was measured using trypan blue cytotoxicity assay. […]

The test system of a further experiment is myoblastic cells H9C2. The experiment is described as follows: hypoxia/reperfusion assay. The conditions noted are these: dividing myoblastic H9C2 cells ± VE-822; hypoxia/reperfusion incubator. Type of experiment: cell-based, human.
The subject of the next experiment is C57BL/6 mice. As to the kind of experiment: middle cerebral artery occlusion (MCAO) stroke model. Type of experiment: in vivo, mouse. How it is done:
Adult mice injected i.p. with vehicle (A) over 3 d after a 30 min unilateral MCAO had larger infarcts (identified by GFAP+ astrocyte borders and more leukocyte (CD45) infiltration) in the brain at 7 d, than with ATR inhibitor (ATRi) VE-822 (B). (C) Quantification of infarct size as % of the contralateral side. Data are mean+SEM. N=4, 6, *p<0.05. […] (E) The number of neurons identified by the area of NeuN staining in the infarct was increased by VE-822 treatment. (F) With vehicle the striatum was essentially devoid of neurons. (G) In VE-822 treated mice rescued neurons often appeared around blood vessels (identified by αSMA). (H) Grid walk analysis of VE-822-treated and mock-treated MCAO mice.
(A) VE-822-treated mice had fewer CD45+ infiltrating leukocytes in the infarct at 7 d after MCAO, as shown by area measurements. N=4, 6, **p<0.01. (B) Only in ATR inhibitor-treated mice, a sub-set of CD45+ cells were double-labeled with TUNEL (white arrows), which identifies DNA breaks in dying cells. (C) These cells included CD68+ microglia/macrophages as shown by split cells in an adjacent section (yellow arrows). Note the perivascular CD68+ cell at the wall of a blood vessel (BV, pink arrow). (D) Cleaved caspase-3 was present in CD45+ and CD68+ cells ([…] confocal slice). (E) The number of TUNEL+ nuclei in the cortex and striatum was higher with the ATR inhibitor treatment. (F) Some of the CD45 cells expressed ATR. (G) After MCAO, ATR expression was induced in PDGFRβ+ pericytes in the infarct. Yellow arrows indicate the cells shown by confocal on the right. Bottom confocal: ATR is seen in a CD13+ pericyte around a microvessel. […] Green arrows=healthy pericytes.
Adult male C57BL/6 mice (10-12 weeks old; JAX Stock 000664, Jackson Labs) were anesthetized with Avertin and received a unilateral middle cerebral artery occlusion (MCAO) for 30 min as described (Kang et al., Endogenous CNTF mediates stroke-induced adult CNS neurogenesis in mice, Neurobiology of Disease 49: 68-78 (2013)). Reduced cortical blood flow was confirmed by Laser-Doppler Flowmetry and body temperature maintained during and after the MCAO. Two hours afterwards, ATR inhibitor VE-822 was injected i.p., and again at 24 and 48 h. One day before and at 3 and 7 days after MCAO, the mice were tested for impaired forepaw use in a glass cylinder test while rearing and the number of placement errors during grid walking. At 7 d mice were processed for histology of the brain as described (Kang et al., 2012, and Kang, et al., 2013), using various antibodies for cellular markers. Infarct size was determined by the area of lost cells in GFAP- and NeuN (neurons)-stained sections. Inflammatory cells were detected and identified with various antibodies and their death documented using an apoptosis detection kit and by nuclear staining.

In experiment [3] the test system is Dividing human neural SH-SY5Y cells. As to the kind of experiment: LDH cytotoxicity assay, Ca2+ overload in dividing cells. Type of experiment: cell-based. The conditions noted are these: glutamate 100 uM, QA 1.0 mM or ionomycin 10 uM, VE-822 80 nM, 2 hrs. How it is done: as §3, §4
For a further experiment, the system named is Primary cortical neurons. As to the kind of experiment: NMDA excitotoxicity, live cell count. Type of experiment: cell-based, mouse. Conditions: 1 h pretreatment, then 10 uM NMDA for 8 h; p≤0.01.
The subject of experiment [4] is dividing ATR+/+ and ATRflox/- HCT116 cells. The experiment is described as follows: trypan blue cytotoxicity assay with apoptosis inhibitor pretreatment. Conditions: pretreatment with Z-VAD-FMK, then ionomycin. Type of experiment: cell-based, human.
Excerpt: as §1, §2

The subject of experiment [5] is Terminally differentiated non-dividing SH-SY5Y cells. The experiment is described as follows: MTT cytotoxicity (cell viability) assay. Type of experiment: cell-based, human. Conditions: Z-VAD-FMK combined with VE-822; glutamate. How it is done:
FIG. 3 depicts results of a cell viability assay (MTT) showing apoptosis is induced by Ca^2+ overload in terminally differentiated non-dividing SH-SY5Y cells but is reduced by ATR inhibition.
Standard MTT cytotoxicity assay was carried out on terminally differentiated non-dividing SH-SY5Y cells treated with combinations of VE-822, Z-VAD-FMK, and glutamate. Cell differentiation: SH-SY5Y were grown to 60-70% confluency. Complete media was then replaced with 1% serum DMEM supplemented with freshly made all-trans retinoic acid dissolved in DMSO to a final in dish concentration of […]. This media was changed every two days following the same composition until day ten. At day ten the media was replaced with 1% serum DMEM with no further supplementation. A washout period of two days was allowed before any experiments were performed.

The subject of a further experiment is dividing SH-SY5Y cells. The experiment is described as follows: DNA damage signaling and AIF activation. Type of experiment: cell-based, human. Conditions: up to 8 hr, compared to controls; data not shown. An excerpt:
A cell morphology-based assay was used to compare cells treated with ionomycin vs. the apoptosis-inducer camptothecin (CPT) (FIG. 4B, C). […] Importantly, cell death depended on NAD+ depletion and was calpain-independent; and ionomycin or glutamate induced little/no DNA damage signaling and AIF activation in dividing SH-SY5Y cells as compared to controls for up to 8 hr, although DNA damage did occur at 24 hr (data not shown).

The subject of the next experiment is ATR binding to PARP1. The experiment is described as follows: ATR co-immunoprecipitation and Western blot for PARP1 binding. Type of experiment: cell-based, human. The conditions noted are these: dividing A549 cells; ionomycin-treated vs control. How it is done:
(B) Dividing ATR^+/+ and ATR^flox/− cells were treated with ionomycin for the indicated periods. (C) Dividing A549 cells were treated with ionomycin, followed by subcellular fractionation and co-immunoprecipitation with ATR antibody and Western blot analysis for PARP1 binding.
Since PARP hyperactivation is known to be the major cause of necrosis by Ca^2+ overload, the effects of ATR on PARsylation in dividing cells was investigated. […] ATR+/+ and ATRflox/− cells were treated with ionomycin for the indicated periods. A549 cells were treated with ionomycin, followed by fractionation and ATR co-IP and Western blot analysis for PARP1 binding.

The test system of a further experiment is PARP. The experiment is described as follows: Western blot analysis of poly(ADP-ribose) (PAR) formation. Type of experiment: cell-based, human. Conditions: dividing A549 cells; ionomycin 10 uM.
Experiment [6] deals with HCT116 and A549 cells and primary fibroblasts. The experiment is described as follows: flow cytometric analysis of necrotic and apoptotic cells. The conditions noted are these: data not shown. Type of experiment: cell-based, human. (A flow cytometer gives signals particle by particle.)

Entries after “also recorded” stand apart in the source; their conditions may differ. Peptide text beside a SMILES is read from it. * marks the point of attachment. Cbz = O=C(OCc1ccccc1)*; CH2F = FC*

On to `CC[C@@]1(O)C(=O)OCc2c1cc1n(c2=O)Cc2cc3ccccc3nc2-1` [CPT, camptothecin], for which, in [1], the “form of cell death by cell morphology” value is given as “efficiently induced apoptosis”. For the same molecule, the “caspase activation (Western blot)” value in the experiment on caspases is “obvious”.
`CNCc1ccc(-c2cc(-c3nc(-c4ccc(S(=O)(=O)C(C)C)cc4)cnc3N)on2)cc1` [VE-822, 5-(4-(Isopropylsulfonyl)phenyl)-3-(3-(4-((methylamino)methyl)phenyl)isoxazol-5-yl)pyrazine-2-amine]: the “cell death (rescue)” value in experiment [2] was “rescued”. In addition, the cell death result with myoblastic cells H9C2 is reported as “Increased death”. Moreover, in the experiment with C57BL/6 mice (7 d after MCAO, VTN-identified pericytes), the “pericyte morphology in the infarct” value is recorded as “morphology consistent with necrosis”. Moreover, in the experiment on C57BL/6 mice (7 d after MCAO, cortex and striatum, vs vehicle), the “number of TUNEL-positive cells in the injury site” value is reported as “increased”. Also, the “number of neurons in the injury site (NeuN area)” value with C57BL/6 mice (7 d after MCAO, vs vehicle) is “increased; also recorded: greater”. The “CD45-positive leukocytes in the injury site” value in the experiment on C57BL/6 mice (7 d after MCAO, vs vehicle, p<0.01) is recorded as “fewer”. Further, the infarct size result in the experiment on C57BL/6 mice (7 days after 30 min MCAO, i.p. at 2, 24 and 48 h, vs vehicle, p<0.05) was “smaller infarcts”. Besides, the “neurological function, grid-walking” value in the experiment with C57BL/6 mice (MCAO mice, i.p. at 2, 24 and 48 h, vs mock-treated) is given as “improved neurological function”. Besides, the “neurological function, affected paw use in cylinder test” value is “improved neurological function” in the experiment with C57BL/6 mice (MCAO mice, i.p. at 2, 24 and 48 h, vs vehicle); “increased to the near normal forelimb use index level” in the experiment on C57BL/6 mice (MCAO mice, i.p. at 2, 24 and 48 h, vs vehicle, listed as ATRi). Further, in experiment [3], the “cell death caused by cellular Ca2+ overload inducers” value is given as “dramatically increased cell death”. Also, in the experiment with Primary cortical neurons, the “live cells after NMDA excitotoxicity” value is given as “rescued from NMDA excitotoxicity”.
In the case of `COC(=O)C[C@H](NC(=O)[C@H](C)NC(=O)[C@@H](NC(=O)OCc1ccccc1)C(C)C)C(=O)CF` [Z-VAD-FMK] (Cbz-Val-Ala-Asp(OMe)-CH2F), the “cell death (trypan blue)” value in experiment [4] is “had no effect on cell death”. Moreover, the “rescue from death (MTT), combination of apoptosis inhibitor and ATR inhibition” value in experiment [5] is listed as “do not have additive effects”.
As for `N[C@@H](CCC(=O)O)C(=O)O` [glutamate], the “DNA damage signaling and AIF activation” value in the experiment on dividing SH-SY5Y cells is reported as “little/no”.
`C[C@H](CCC(=O)O)C[C@H](C)C[C@H](C)C(=O)/C=C(\O)[C@H](C)C[C@H](C)C/C=C/[C@@H](C)[C@@H](O)[C@@H](C)[C@@H](O)C[C@@H]1CC[C@@](C)([C@H]2CC[C@@](C)([C@@H](C)O)O2)O1` [ionomycin]: in the experiment on ATR binding to PARP1, the “ATR interaction with PARP1 (co-IP)” value is “interacts with PARP1”. The “DNA damage signaling and AIF activation” value in the experiment with dividing SH-SY5Y cells was “little/no”. The “form of cell death by cell morphology” value in [1] is listed as “caused necrosis”. In the experiment with PARP, the “PARP activity as formation of PAR polymers” value is reported as “increased PARP activity”. The “form of cell death by flow cytometry” value in [6] is “necrotic cell death”. In addition, the “caspase activation (Western blot)” value in the experiment on caspases is listed as “absence of caspase activation”.
